Data published in patent US6673938B1, “Substituted pyridine herbicides” (Syngenta Participations AG, priority 1998, dated 2004).

Legend:
[1] = tested on: Monocotyledonous and dicotyledonous test plants; assay: Post-emergence herbicidal action; format: in vivo; conditions: evaluated after approximately 18 days; for Post-emergence action: Abutilon (score, nine-step scale) / Post-emergence action: Chenop. (score, nine-step scale) / Post-emergence action: Digitaria (score, nine-step scale) / Post-emergence action: Echino. (score, nine-step scale) / Post-emergence action: Ipopur. (score, nine-step scale) / Post-emergence action: Panicum (score, nine-step scale) / Post-emergence action: Xanth. (score, nine-step scale): 250 g/ha, sprayed at 4- to 6-leaf stage; for Post-emergence action, Ipomoea / Post-emergence action, Lolium / Post-emergence action, Setaria / Post-emergence action, Sinapis / Post-emergence action, Solanum / Post-emergence action, Stellaria: 2000 g/ha, sprayed in 4- to 6-leaf stage, nine-step scale
Procedure: Monocotyledonous and dicotyledonous test plants are grown in the greenhouse in plastic pots containing standard soil, and, in the 4- to 6-leaf stage, sprayed with an aqueous suspension of the test substances of the formula I prepared with a 25% wettable powder (Example F3, b) in accordance with WO 97/34485) or with an emulsion of the test substances of the formula I prepared with a 25% emulsion concentrate (Example F1, c) in accordance with WO 97/34485), corresponding to a rate of 2 kg of a.i./ha or 250 g of a.i./ha (500 l of water/ha). The test plants are subsequently grown on in the greenhouse under optimal conditions. After a test period of approximately 18 days, the test is evaluated with reference to a nine-step scale (1=complete damage, 9=no effect). Score figures of 1 to 4 (in particular 1 to 3) mean a good to very good herbicidal action. In this test, the compounds of the formula I show a potent herbicidal action.

[2] = tested on: Monocotyledonous and dicotyledonous test plants; assay: Herbicidal action before emergence of the plants (pre-emergence action); format: in vivo; conditions: evaluated after 3 weeks, nine-step scale; for Pre-emergence action, Abutilon / Pre-emergence action, Amaranthus / Pre-emergence action, Chenop. / Pre-emergence action, Digitaria / Pre-emergence action, Echino. / Pre-emergence action, Panicum: 250 g/ha; for pre-emergence action, Cyperus / pre-emergence action, Ipomoea / pre-emergence action, Setaria / pre-emergence action, Sinapis / pre-emergence action, Solanum / pre-emergence action, Stellaria: 2000 g/ha
Procedure: Monocotyledonous and dicotyledonous test plants are sown in standard soil in plastic pots. Immediately after sowing, the test substances as aqueous suspensions (prepared with a 25% wettable powder (Example F3, b) in accordance with WO 97/34485) or as emulsions (prepared with a 25% emulsion concentrate (Example F1, c)) are sprayed on at a rate of 2 kg of a.i./ha or 250 g of a.i./ha (500 l of water/ha). The test plants are then grown in the greenhouse under optimal conditions. After a test period of 3 weeks, the experiment is evaluated with reference to a nine-step scale (1=complete damage, 9=no effect). Score figures of 1 to 4 (in particular 1 to 3) mean a good to very good herbicidal action.

Structure (SMILES)	Post-emergence action, Ipomoea [1]	Post-emergence action, Lolium [1]	Post-emergence action, Setaria [1]	Post-emergence action, Sinapis [1]	Post-emergence action, Solanum [1]	Post-emergence action, Stellaria [1]	pre-emergence action, Cyperus [2]	pre-emergence action, Ipomoea [2]	pre-emergence action, Setaria [2]	pre-emergence action, Sinapis [2]	pre-emergence action, Solanum [2]	pre-emergence action, Stellaria [2]	other results
CCOC(=O)C1C(O)=C(C(=O)c2ccc(C(F)(F)F)nc2C)C(=O)CC1C (stereo not drawn) [Compound A2-B145]													Post-emergence action: Abutilon (score, nine-step scale) [1]: 3; Post-emergence action: Chenop. (score, nine-step scale) [1]: 1; Post-emergence action: Digitaria (score, nine-step scale) [1]: 2; Post-emergence action: Echino. (score, nine-step scale) [1]: 2; Post-emergence action: Ipopur. (score, nine-step scale) [1]: 3; Post-emergence action: Panicum (score, nine-step scale) [1]: 2; Post-emergence action: Xanth. (score, nine-step scale) [1]: 3; Pre-emergence action, Abutilon [2]: 2; Pre-emergence action, Amaranthus [2]: 3; Pre-emergence action, Chenop. [2]: 1; Pre-emergence action, Digitaria [2]: 2; Pre-emergence action, Echino. [2]: 4; Pre-emergence action, Panicum [2]: 2
Cc1nc(C(F)(F)F)ccc1C(=O)C1=C(O)C(C)CC(C)C1=O (stereo not drawn) [A2-B46 (cis)]	1	2	3	1	2	2	1	2	1	2	1	2	
CCOC(=O)OCc1nc(C(F)(F)F)ccc1C(=O)C1=C(O)C(C)(C)C(=O)C(C)(C)C1=O [Compound A1208-B354]													Post-emergence action: Abutilon (score, nine-step scale) [1]: 1; Post-emergence action: Chenop. (score, nine-step scale) [1]: 2; Post-emergence action: Digitaria (score, nine-step scale) [1]: 4; Post-emergence action: Echino. (score, nine-step scale) [1]: 2; Post-emergence action: Ipopur. (score, nine-step scale) [1]: 2; Post-emergence action: Panicum (score, nine-step scale) [1]: 3; Post-emergence action: Xanth. (score, nine-step scale) [1]: 2; Pre-emergence action, Abutilon [2]: 1; Pre-emergence action, Amaranthus [2]: 1; Pre-emergence action, Chenop. [2]: 1; Pre-emergence action, Digitaria [2]: 1; Pre-emergence action, Echino. [2]: 1; Pre-emergence action, Panicum [2]: 1
CCC1CC(C)(C)C(=O)C(C(=O)c2ccc(C(F)(F)F)nc2C)=C1O (stereo not drawn) [Compound A2-B1089]	1	2	2	1	1	2	1	2	2	2	1	2	
Cc1nc(C(F)(F)F)ccc1C(=O)C1=C(O)C(C)(S(C)(=O)=O)CC(C)C1=O (stereo not drawn) [Compound A2-B75]	2	2	3	1	2	2	2	3	2	2	1	2	
Cc1nc(C(F)(F)F)ccc1C(=O)C1=C(O)CCC2(CC2)C1=O [Compound A2-C1]	3	2	2	1	2	2	2	3	1	2	1	2	
Cc1nc(C(F)(F)F)ccc1C(=O)C1=C(O)C(C)(S(C)(=O)=O)CCC1=O (stereo not drawn) [Compound A2-B31]	2	2	2	1	2	2	2	3	4	2	1	2	
COC(=O)C1C(O)=C(C(=O)c2ccc(C(F)(F)F)nc2C)C(=O)CC1C (stereo not drawn) [Compound A2-B144]							3	4	2	2	2	4	
COc1nc(C(F)(F)F)ccc1C(=O)C1=C(O)C(C)(C)CCC1=O [Compound A1022-B24]													Pre-emergence action, Abutilon [2]: 3; Pre-emergence action, Amaranthus [2]: 4; Pre-emergence action, Chenop. [2]: 1; Pre-emergence action, Digitaria [2]: 4; Pre-emergence action, Echino. [2]: 4; Pre-emergence action, Panicum [2]: 2
COC(=O)C1(OC)CCC(=O)C(C(=O)c2ccc(C(F)(F)F)nc2C)=C1O (stereo not drawn) [Compound A2-B1067]							2	3	2	2	3	3	
Cc1nc(C(F)(F)F)ccc1C(=O)C1=C(O)C(C)(C)OCC1=O [Compound A2-B552]							1	2	2	2	1	2	
COCc1nc(C(F)(F)F)ccc1C(=O)C1=C(O)CC(C)(C)CC1=O [Compound A8-B1063]													Pre-emergence action, Abutilon [2]: 2; Pre-emergence action, Amaranthus [2]: 4; Pre-emergence action, Chenop. [2]: 1; Pre-emergence action, Digitaria [2]: 3; Pre-emergence action, Echino. [2]: 3; Pre-emergence action, Panicum [2]: 2
Cc1nc(C(F)(F)C(F)(F)C(F)(F)F)ccc1C(=O)C1=C(O)CCCC1=O [Compound A64-B1]	2	3	4	1	1	2							
Cc1nc(C(F)(F)F)ccc1C(=O)C1=C(O)CCC2(CCOC2=O)C1=O (stereo not drawn) [Compound A2-E16]	2	3	2	2	2	2							
Cc1nc(C(F)(F)F)ccc1C(=O)C1=C(O)C(C(C)C)CCC1=O (stereo not drawn) [Compound A2-B5]	1	2	2	1	2	2							
Cc1c(C(=O)C2=C(O)CCCC2=O)ccc(C(F)(F)F)[n+]1[O-] [Compound A1210-B1, 3-Hydroxy-2-(2-methyl-1-oxy-6-trifluoromethylpyridine-3-carbonyl)cyclohex-2-enone]													Post-emergence action: Abutilon (score, nine-step scale) [1]: 2; Post-emergence action: Chenop. (score, nine-step scale) [1]: 1; Post-emergence action: Digitaria (score, nine-step scale) [1]: 2; Post-emergence action: Echino. (score, nine-step scale) [1]: 2; Post-emergence action: Ipopur. (score, nine-step scale) [1]: 2; Post-emergence action: Panicum (score, nine-step scale) [1]: 2; Post-emergence action: Xanth. (score, nine-step scale) [1]: 2
